The record followed here is PubChem BioAssay AID192 (DTP/NCI, 2004).

This test deals with BDF1 mice, B16 melanoma ip, median survival T/C. Put plainly: NCI In Vivo Anticancer Drug Screen. Data for tumor model B16 Melanoma (intraperitoneal) in B6D2F1 (BDF1) mice. Particulars: endpoint: median survival time, higher = longer survival. An outline of the steps: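 Each result divides a survival or tumor-size measurement in the compound-treated group by the same measurement in the vehicle group.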

The mark [1] stands for this setting: dose: 6.25 mg/kg/injection, schedule: Q01DX009 (ip), vehicle: suspension in saline.
Where [2] appears, read: dose: 50.0 mg/kg/injection, schedule: Q01DX009 (ip), vehicle: Klucel (hydroxypropylcellulose) (HPC).
Setting [3] is: dose: 100.0 mg/kg/injection, schedule: Q01DX009 (ip), vehicle: Klucel (hydroxypropylcellulose) (HPC).
The mark [4] stands for this setting: dose: 200.0 mg/kg/injection, schedule: Q01DX009 (ip), vehicle: Klucel (hydroxypropylcellulose) (HPC).
Where [5] appears, read: dose: 100.0 mg/kg/injection, schedule: Q01DX009 (ip), vehicle: saline.

“And” between values parts separate entries of the source, which are not always exact repeats. Equal entries are not always repeated. Inconclusive results and toxic doses are left out.

As for `COC(=O)[C@H]1[C@H]2C[C@@H]3c4[nH]c5cc(OC)ccc5c4CCN3C[C@H]2C[C@@H](OC(=O)c2cc(OC)c(OC)c(OC)c2)[C@@H]1OC`, the T/C runs as follows: (dose: 0.04 mg/kg/injection, schedule: Q01DX009 (ip), vehicle: saline) 91 % of control; (dose: 0.09 mg/kg/injection, schedule: Q01DX009 (ip), vehicle: saline) 91 % of control; (dose: 0.19 mg/kg/injection, schedule: Q01DX009 (ip), vehicle: saline) 90 % of control; (dose: 0.39 mg/kg/injection, schedule: Q01DX009 (ip), vehicle: saline) 91 % of control; (dose: 0.78 mg/kg/injection, schedule: Q01DX009 (ip), vehicle: saline) 88 % of control.

With `c1cn[nH]c1`, the T/C is 97 % of control (dose: 25.0 mg/kg/injection, schedule: Q01DX009 (ip), vehicle: saline with Tween-80); 96 % of control (dose: 50.0 mg/kg/injection, schedule: Q01DX009 (ip), vehicle: saline with Tween-80); 91 % of control (dose: 100.0 mg/kg/injection, schedule: Q01DX009 (ip), vehicle: saline with Tween-80).

For `C(=P(c1ccccc1)(c1ccccc1)c1ccccc1)[P+](c1ccccc1)(c1ccccc1)c1ccccc1`, the T/C (dose: 3.12 mg/kg/injection, schedule: Q01DX009 (ip), vehicle: Klucel (hydroxypropylcellulose) (HPC)) is 111 % of control and the T/C under setting [1] was 157 % of control.

With `O=C1c2ccccc2C(=O)c2c3c(cc(NCCNCCO)c21)N(CCO)CCN3`, the T/C (dose: 12.5 mg/kg/injection, schedule: Q01DX009 (ip), vehicle: DMSO) is 121 % of control; the T/C (dose: 100.0 mg/kg/injection, schedule: Q01DX009 (ip), vehicle: DMSO) was 162 % of control; the T/C (dose: 200.0 mg/kg/injection, schedule: Q01DX009 (ip), vehicle: DMSO) was 194 % of control.

For `Cc1ccc(Nc2nnc(N=Nc3ccccc3)s2)cc1C`, the T/C reads like this: under setting [2], 86 % of control; under setting [3], 91 % of control; under setting [4], 91 % of control.

For `CN(C)/N=N/c1[nH]ncc1C(N)=O`, under “dose: 50.0 mg/kg/injection, schedule: Q01DX009 (ip), vehicle: carboxymethylcellulose (CMC)”, the T/C was 105 % of control.

On to `N/C(=N\N=C\c1ccc(-c2ccccc2)cc1)N[N+](=O)[O-]`, for which the T/C is 93 % of control (dose: 25.0 mg/kg/injection, schedule: Q01DX009 (ip), vehicle: Klucel (hydroxypropylcellulose) (HPC)); 90 % of control under setting [2]; 93 % of control under setting [3]; 86 % of control under setting [4].

On to `CN[C@@H]1[C@H](O)[C@H](NC)[C@H]2O[C@@]3(O)C(=O)C[C@@H](C)O[C@H]3O[C@@H]2[C@H]1O`, for which the T/C was 108 % of control under setting [5]; 103 % of control (dose: 200.0 mg/kg/injection, schedule: Q01DX009 (ip), vehicle: saline); 113 % of control (dose: 400.0 mg/kg/injection, schedule: Q01DX009 (ip), vehicle: saline).

As for `NC(CS/C(Cl)=C/Cl)C(=O)O` (centres undefined), the T/C reads like this: (dose: 12.0 mg/kg/injection, schedule: Q01DX009 (ip), vehicle: other) 102 % of control; (dose: 18.0 mg/kg/injection, schedule: Q01DX009 (ip), vehicle: other) 90 % of control; (dose: 27.0 mg/kg/injection, schedule: Q01DX009 (ip), vehicle: other) 90 % of control.

Turning to `CO[C@H]1Nc2c(ccc(C)c2O)C(=O)N2C=C(/C=C/C(N)=O)C[C@@H]12`, the T/C is, setting by setting: (dose: 0.05 mg/kg/injection, schedule: Q04DX003 (ip), vehicle: DMSO) 111 % of control; (dose: 0.06 mg/kg/injection, schedule: Q01DX009 (ip), vehicle: saline with Tween-80) 92 % of control; (dose: 0.1 mg/kg/injection, schedule: Q04DX003 (ip), vehicle: DMSO) 101 % of control; (dose: 0.12 mg/kg/injection, schedule: Q01DX009 (ip), vehicle: saline with Tween-80) 94 % of control; (dose: 0.2 mg/kg/injection, schedule: Q04DX003 (ip), vehicle: DMSO) 120 % of control; (dose: 0.25 mg/kg/injection, schedule: Q01DX009 (ip), vehicle: saline with Tween-80) 97 % of control. The T/C (dose: 0.4 mg/kg/injection, schedule: Q04DX003 (ip), vehicle: DMSO) was 112 % of control; the T/C (dose: 16.5 micrograms/kg/injection, schedule: Q01DX009 (ip), vehicle: saline + alcohol) is 106 % of control; the T/C (dose: 25.0 micrograms/kg/injection, schedule: Q01DX009 (ip), vehicle: saline with Tween-80) was 100 % of control; the T/C (dose: 25.0 micrograms/kg/injection, schedule: Q04DX003 (ip), vehicle: saline with Tween-80) is 101 % of control; the T/C (dose: 33.0 micrograms/kg/injection, schedule: Q01DX009 (ip), vehicle: saline + alcohol) was 100 % of control; the T/C (dose: 50.0 micrograms/kg/injection, schedule: Q01DX009 (ip), vehicle: saline with Tween-80) was 104 % of control. Moreover, the T/C reads like this: (dose: 50.0 micrograms/kg/injection, schedule: Q04DX003 (ip), vehicle: saline with Tween-80) 104 % of control; (dose: 66.0 micrograms/kg/injection, schedule: Q01DX009 (ip), vehicle: saline + alcohol) 107 % of control; (dose: 100.0 micrograms/kg/injection, schedule: Q01DX009 (ip), vehicle: saline with Tween-80) 96 % of control; (dose: 100.0 micrograms/kg/injection, schedule: Q04DX003 (ip), vehicle: saline with Tween-80) 111 % of control; (dose: 200.0 micrograms/kg/injection, schedule: Q01DX009 (ip), vehicle: saline with Tween-80) 95 % of control; (dose: 200.0 micrograms/kg/injection, schedule: Q04DX003 (ip), vehicle: saline with Tween-80) 107 % of control.

For the molecule `COc1cc2c[n+](C)c3c4cc(OC)c(OC)cc4ccc3c2cc1OC`, the T/C is, setting by setting: (dose: 6.25 mg/kg/injection, schedule: Q01DX001 (ip), vehicle: saline with Tween-80) 109 % of control; (dose: 12.5 mg/kg/injection, schedule: Q01DX001 (ip), vehicle: saline with Tween-80) 100 % of control; (dose: 25.0 mg/kg/injection, schedule: Q01DX001 (ip), vehicle: saline with Tween-80) 105 % of control; (dose: 50.0 mg/kg/injection, schedule: Q01DX001 (ip), vehicle: saline with Tween-80) 88 % of control; under setting [2], 108 % of control; (dose: 100.0 mg/kg/injection, schedule: Q01DX001 (ip), vehicle: saline with Tween-80) 90 % of control. Under setting [3], the T/C was 102 % of control.

Regarding `COc1ccc(N=Cc2ccc(C=Nc3ccc(OC)cc3)cc2)cc1`, the T/C under setting [2] was 92 % of control and 94 % of control; the T/C under setting [3] was 96 % of control; the T/C under setting [4] is 88 % of control and 93 % of control.

Consider `COC(=O)/C(C)=C/C=C/C(OC)C(OC(N)=O)/C(C)=C/C(C)C(O)C(CC(C)CC1=C(OC)C(=O)C=C(N)C1=O)OC` (centres undefined), for which the T/C (dose: 12.5 mg/kg/injection, schedule: Q01DX005 (ip), vehicle: other) was 103 % of control; the T/C (dose: 25.0 mg/kg/injection, schedule: Q01DX005 (ip), vehicle: other) was 99 % of control; the T/C (dose: 50.0 mg/kg/injection, schedule: Q01DX005 (ip), vehicle: other) was 108 % of control; the T/C (dose: 100.0 mg/kg/injection, schedule: Q01DX005 (ip), vehicle: other) is 108 % of control; the T/C (dose: 200.0 mg/kg/injection, schedule: Q01DX005 (ip), vehicle: other) was 86 % of control.

As for `O=C(c1ccc(O)cc1O)c1cccc2ccccc12`, the T/C under setting [3] was 98 % of control; the T/C under setting [4] was 98 % of control; the T/C (dose: 400.0 mg/kg/injection, schedule: Q01DX009 (ip), vehicle: Klucel (hydroxypropylcellulose) (HPC)) was 100 % of control.

As for `CC[C@@]1(O)C(=O)OCc2c1cc1n(c2=O)Cc2cc3cc(O)ccc3nc2-1`, the T/C is 157 % of control (dose: 0.2 mg/kg/injection, schedule: Q01DX009 (ip), vehicle: other); 151 % of control (dose: 0.39 mg/kg/injection, schedule: Q01DX009 (ip), vehicle: other); 179 % of control (dose: 0.79 mg/kg/injection, schedule: Q01DX009 (ip), vehicle: other); 184 % of control (dose: 1.57 mg/kg/injection, schedule: Q01DX009 (ip), vehicle: other).

As for `C[N+](C)(C)c1ncnc2c1ncn2C1CCCO1` (centres undefined), the T/C by setting is: (dose: 6.25 mg/kg/injection, schedule: Q01DX009 (ip), vehicle: saline) 111 % of control; (dose: 12.5 mg/kg/injection, schedule: Q01DX009 (ip), vehicle: saline) 105 % of control; (dose: 25.0 mg/kg/injection, schedule: Q01DX009 (ip), vehicle: saline) 108 % of control; (dose: 50.0 mg/kg/injection, schedule: Q01DX009 (ip), vehicle: saline) 111 % of control; under setting [5], 117 % of control.

Regarding `O=c1[nH]c2c(ccc3cnccc32)c2c1CCC2`, the T/C reads like this: (dose: 3.12 mg/kg/injection, schedule: Q01DX009 (ip), vehicle: suspension in saline) 97 % of control; under setting [1], 104 % of control.
